{"source": "patent US9181195B2", "about": "“Sigma receptor inhibitors” (Laboratorios Del Dr. Esteve, S.A., priority 2010, dated 2015)", "note": "Where a name gives a salt, the structure may show the parent alone."}
{"target": "T1, σ1-receptor (Cavia porcellus, UniProt Q60492)", "T1 construct": "guinea pig brains were homogenized; from tissue; host or cells: guinea pig brain membranes", "T1 sequence (Q60492 whole entry)": "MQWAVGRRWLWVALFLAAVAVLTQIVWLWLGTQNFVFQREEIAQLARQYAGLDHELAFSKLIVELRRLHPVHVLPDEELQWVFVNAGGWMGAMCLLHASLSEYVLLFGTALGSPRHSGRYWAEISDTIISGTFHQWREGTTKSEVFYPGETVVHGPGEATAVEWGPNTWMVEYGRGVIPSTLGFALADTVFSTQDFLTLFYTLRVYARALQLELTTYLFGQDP", "assay": "σ1-receptor binding assay, [3H](+)-pentazocine, guinea pig brain membranes", "details": "[3H](+)-pentazocine 0.5 nM, non-specific binding 1 μM haloperidol, 37° C., 150 min", "description": "Some representative compounds of the invention were tested for their activity as sigma (sigma-1) inhibitors. The following protocol was followed:\nBrain membrane preparation and binding assays for the σ1-receptor were performed as described (DeHaven-Hudkins et al., 1992) with some modifications. In brief, guinea pig brains were homogenized in 10 vols. (w/v) of Tris-HCl 50 mM 0.32 M sucrose, pH 7.4, with a Kinematica Polytron PT 3000 at 15000 r.p.m. for 30 s. The homogenate was centrifuged at 1000 g for 10 min at 4° C. and the supernatants collected and centrifuged again at 48000 g for 15 min at 4° C. The pellet was resuspended in 10 volumes of Tris-HCl buffer (50 mM, pH 7.4), incubated at 37° C. for 30 min, and centrifuged at 48000 g for 20 min at 4° C. Following this, the pellet was resuspended in fresh Tris-HCl buffer (50 mM, pH 7.4) and stored on ice until use.\nEach assay tube contained 10 μL of [^3H](+)-pentazocine (final concentration of 0.5 nM), 900 μL of the tissue suspension to a final assay volume of 1 mL and a final tissue concentration of approximately 30 mg tissue net weight/mL. Non-specific binding was defined by addition of a final concentration of 1 μM haloperidol. All tubes were incubated at 37° C. for 150 min before termination of the reaction by rapid filtration over Schleicher & Schuell GF 3362 glass fibre filters [previously soaked in a solution of 0.5% polyethylenimine for at least 1 h]. Filters were then washed with four times with 4 mL of cold Tris-HCl buffer (50 mM, pH 7.4). Following addition of scintillation cocktail, the samples were allowed to equilibrate overnight. The amount of bound radioactivity was determined by liquid scintillation spectrometry using a Wallac Winspectral 1414 liquid scintillation counter. Protein concentrations were determined by the method of Lowry et al, (1951).", "units": {"Ki": "µM"}}
{"smiles": "Clc1ccc(-n2ccc(CCCCN3CCOCC3)n2)cc1Cl", "note": "[Compound 18, 4-(4-(1-(3,4-dichlorophenyl)-1H-pyrazol-3-yl)butyl)morpholine]", "Ki": 0.00628}
{"smiles": "Cc1cc(CCCCN2CCOCC2)nn1-c1ccc(Cl)c(Cl)c1", "note": "[Compound 13, 4-(4-(1-(3,4-dichlorophenyl)-5-methyl-1H-pyrazol-3-yl)butyl)morpholine]", "Ki": 0.00862}
{"smiles": "CC(=O)N1CCN(CCOCc2cc(C)n(C3CCCCC3)n2)CC1", "note": "[Compound 22, 1-(4-(2-((1-cyclohexyl-5-methyl-1H-pyrazol-3-yl)methoxy)ethyl)-piperazin-1-yl)ethanone hydrochloride]", "Ki": 0.101}
{"smiles": "Cc1cc(COCCN2CCOCC2)nn1-c1ccc2ccccc2c1", "note": "[Compound 2, 4-(2-{[1-(2-naphthyl)-5-methyl-1H-pyrazol-3-yl]methoxy}ethyl)morpholine]", "Ki": 0.209}
{"smiles": "Cc1c(COCCN2CCOCC2)nn(-c2ccc(Cl)c(Cl)c2)c1C", "note": "[Compound 16, 4-(2-((1-(3,4-dichlorophenyl)-4,5-dimethyl-1H-pyrazol-3-yl)methoxy)ethyl)-morpholine]", "Ki": 0.0229}
{"smiles": "CC(=O)N1CCN(CCOCc2cc(C)n(-c3ccc(Cl)c(Cl)c3)n2)CC1", "note": "[Compound 10, 1-(4-(2-((1-(3,4-dichlorophenyl)-5-methyl-1H-pyrazol-3-yl)methoxy)ethyl)-piperazin-1-yl)-ethanone]", "Ki": 0.0146}
{"smiles": "Cc1c(COCCN2CCOCC2)nn(C2CCCCC2)c1C", "note": "[Compound 26, 4-(2-((1-cyclohexyl-4,5-dimethyl-1H-pyrazol-3-yl)methoxy)ethyl)-morpholine hydrochloride]", "Ki": 0.11}
{"smiles": "Clc1ccc(-n2ccc(COCCN3CCOCC3)n2)cc1Cl", "note": "[Compound 15, 4-(2-((1-(3,4-dichlorophenyl)-1H-pyrazol-3-yl)methoxy)ethyl)-morpholine]", "Ki": 0.00213}
{"smiles": "Cc1cc(COCCN2CCOCC2)nn1-c1cnc2ccccc2c1", "note": "[Compound 12, 4-(2-((5-methyl-1-(quinolin-3-yl)-1H-pyrazol-3-yl)methoxy)ethyl)-morpholine]", "Ki": 0.771}
{"smiles": "Cc1cc(CCCN2CCOCC2)nn1-c1cnc2ccccc2c1", "note": "[Compound 14, 4-(3-(5-methyl-1-(quinolin-3-yl)-1H-pyrazol-3-yl)propyl)morpholine]", "Ki": 0.281}
{"smiles": "Cc1cc(CCCN2CCOCC2)nn1-c1ccc(Cl)c(Cl)c1", "note": "[Compound 3, 4-{3-[1-(3,4-dichlorophenyl)-5-methyl-1H-pyrazol-3-yl]propyl}morpholine]", "Ki": 0.00474}
{"smiles": "Cc1cc(COCCN2CCCC2)nn1-c1ccc(Cl)c(Cl)c1", "note": "[Compound 8, 1-(3,4-dichlorophenyl)-5-methyl-3-((2-(pyrrolidin-1-yl)ethoxy)methyl)-1H-pyrazole]", "Ki": 0.00612}
{"smiles": "Cc1cc(CCCN2CCOCC2)nn1C1CCCCC1", "note": "[Compound 7, 4-(3-(1-cyclohexyl-5-methyl-1H-pyrazol-3-yl)propyl)morpholine]", "Ki": 0.0533}
{"smiles": "Cc1cc(COCCN2C[C@@H](C)O[C@@H](C)C2)nn1-c1ccc(Cl)c(Cl)c1", "note": "[Compound 11, (2S,6R)-4-(2-((1-(3,4-dichlorophenyl)-5-methyl-1H-pyrazol-3-yl)methoxy)ethyl)-2,6-dimethylmorpholine]", "Ki": 0.0032}
{"smiles": "Cc1cc(CCCN2CCOCC2)nn1-c1ccc2ccccc2c1", "note": "[Compound 4, 4-{3-[5-Methyl-1-(2-naphthyl)-1H-pyrazol-3-yl]propyl}morpholine]", "Ki": 0.132}
{"smiles": "Cc1cc(CCOCCN2CCOCC2)nn1-c1ccc(Cl)c(Cl)c1", "note": "[Compound 5, 4-(2-{2-[1-(3,4-dichlorophenyl)-5-methyl-1H-pyrazol-3-yl]ethoxy)ethyl}morpholine]", "Ki": 0.113}
{"smiles": "Cc1cc(COCCN2CCCCC2)nn1-c1ccc(Cl)c(Cl)c1", "note": "[Compound 9, 1-(2-((1-(3,4-dichlorophenyl)-5-methyl-1H-pyrazol-3-yl)methoxy)ethyl)-piperidine]", "Ki": 0.00209}
{"smiles": "Cc1cc(CCOCCN2CCOCC2)nn1C1CCCCC1", "note": "[Compound 24, 4-(2-(2-(1-cyclohexyl-5-methyl-1H-pyrazol-3-yl)ethoxy)ethyl)-morpholine hydrochloride]", "Ki": 0.266}
{"smiles": "c1cn(C2CCCCC2)nc1COCCN1CCOCC1", "note": "[Compound 25, 4-(2-((1-cyclohexyl-1H-pyrazol-3-yl)methoxy)ethyl)-morpholine-hydrochloride]", "Ki": 0.0113}
{"smiles": "Cc1cc(COCCN2C[C@@H](C)N[C@@H](C)C2)nn1C1CCCCC1", "note": "[Compound 23, (3S,5R)-1-(2-((1-cyclohexyl-5-methyl-1H-pyrazol-3-yl)methoxy)ethyl)-3,5-dimethylpiperazine hydrochloride]", "Ki": 0.488}
{"smiles": "Cc1cc(COCCN2CCOCC2)nn1C1CCCCC1", "note": "[Compound 6, 4-(2-((1-cyclohexyl-5-methyl-1H-pyrazol-3-yl)methoxy)ethyl)-morpholine]", "Ki": 0.0236}
{"smiles": "Cc1cc(COCCN2CCOCC2)nn1C1CCCC1", "note": "[Compound 21, 4-(2-((1-cyclopentyl-5-methyl-1H-pyrazol-3-yl)methoxy)ethyl)-morpholine]", "Ki": 0.24}
{"smiles": "Cc1cc(COCCN2CCOCC2)nn1-c1ccc(Cl)c(Cl)c1", "note": "[Compound 1, 4-(2-{[1-(3,4-dichlorophenyl)-5-methyl-1H-pyrazol-3-yl]methoxy}ethyl)morpholine]", "Ki": 0.0138}
{"smiles": "c1ccc2ncc(-n3ccc(CCCN4CCOCC4)n3)cc2c1", "note": "[Compound 17, 4-(3-(1-(quinolin-3-yl)-1H-pyrazol-3-yl)propyl)morpholine]", "Ki": 0.154}
{"smiles": "Cc1cc(COCCCN2CCOCC2)nn1C1CCCCC1", "note": "[Compound 20, 4-(3-((1-cyclohexyl-5-methyl-1H-pyrazol-3-yl)methoxy)propyl)-morpholine]", "Ki": 0.0068}
